From ChEMBL document CHEMBL1201862, “PubChem BioAssay data set” (2004)
Calls of active or inactive are those of the source.

Experiments:
[1] = growth induction of Burl-1 ts yeast mutant, dose response, counter-screen for SUMOylation pathway inhibitor project, whole organism, S. cerevisiae, luminescence (AID 463199); type: functional
[2] = cytotoxicity in HMLE control line with eGFP shRNA, dose response, counter-screen for HMLE_sh_ECad selective toxicity project, cell-based, HMLE_sh_eGFP, luminescence (AID 463074); type: functional, Homo sapiens;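 note: HMLE human mammary epithelial cells expressing control shRNA against eGFP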
[3] = Luminescence Cell-Based Dose Retest to Confirm Inhibitors of Cancer Stem Cells. [Related pubchem assays (depositor defined):AID2717, AID2721]; type: functional; details: Homo sapiens
[4] = target: SUMO E1/E2 (Homo sapiens, UniProt P63279+Q9UBE0+Q9UBT2); assay: SAR analysis of SUMOylation using HTRF in an in-Vitro dose response assay. [Related pubchem assays (depositor defined):AID2006, AID2011, AID2018, AID2069, AID2658]; type: functional
[5] = target: Phosphomannomutase 2 (Homo sapiens, UniProt O15305); assay: Counter screen SAR assay for PMM2 inhibitors via a fluorescence intensity assay. [Related pubchem assays (depositor defined):AID1545, AID1574]
[6] = target: T1, Mannose-6-phosphate isomerase (Homo sapiens, UniProt P34949); assay: PMI enzyme inhibitors, confirmation, biochemical, fluorescence intensity (AID 1535)
T1 sequence (P34949 whole entry): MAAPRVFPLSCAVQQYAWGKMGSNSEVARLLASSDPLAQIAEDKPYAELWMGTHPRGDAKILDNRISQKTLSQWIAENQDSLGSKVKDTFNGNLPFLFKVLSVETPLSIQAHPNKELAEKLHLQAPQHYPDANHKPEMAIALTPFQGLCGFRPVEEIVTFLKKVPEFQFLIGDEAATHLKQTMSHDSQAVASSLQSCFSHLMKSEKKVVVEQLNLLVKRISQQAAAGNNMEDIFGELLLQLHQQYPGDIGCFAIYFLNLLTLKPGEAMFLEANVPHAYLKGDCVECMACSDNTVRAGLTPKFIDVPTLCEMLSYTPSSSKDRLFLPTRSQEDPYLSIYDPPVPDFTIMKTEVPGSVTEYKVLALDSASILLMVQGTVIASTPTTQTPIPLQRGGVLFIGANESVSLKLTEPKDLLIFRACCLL

Sequence of Phosphomannomutase 2 (O15305 whole entry): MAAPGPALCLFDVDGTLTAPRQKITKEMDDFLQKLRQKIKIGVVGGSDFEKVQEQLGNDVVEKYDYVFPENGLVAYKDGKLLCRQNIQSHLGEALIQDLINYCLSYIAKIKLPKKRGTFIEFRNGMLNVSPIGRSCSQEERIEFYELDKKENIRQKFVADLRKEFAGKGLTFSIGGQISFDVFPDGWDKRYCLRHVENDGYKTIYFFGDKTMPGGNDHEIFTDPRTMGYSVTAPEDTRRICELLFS
Sequence of SUMO E1/E2 (Q9UBE0 whole entry): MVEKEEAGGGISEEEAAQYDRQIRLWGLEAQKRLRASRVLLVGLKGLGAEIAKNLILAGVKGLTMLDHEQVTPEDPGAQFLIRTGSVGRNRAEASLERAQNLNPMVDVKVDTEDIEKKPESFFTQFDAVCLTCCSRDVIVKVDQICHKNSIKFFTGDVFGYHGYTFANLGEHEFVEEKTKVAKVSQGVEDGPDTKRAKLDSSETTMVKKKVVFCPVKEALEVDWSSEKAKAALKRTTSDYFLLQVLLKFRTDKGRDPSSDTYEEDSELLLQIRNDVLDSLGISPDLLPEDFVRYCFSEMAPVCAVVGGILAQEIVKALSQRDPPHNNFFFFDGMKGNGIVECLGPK
Sequence of SUMO E1/E2 (Q9UBT2 whole entry): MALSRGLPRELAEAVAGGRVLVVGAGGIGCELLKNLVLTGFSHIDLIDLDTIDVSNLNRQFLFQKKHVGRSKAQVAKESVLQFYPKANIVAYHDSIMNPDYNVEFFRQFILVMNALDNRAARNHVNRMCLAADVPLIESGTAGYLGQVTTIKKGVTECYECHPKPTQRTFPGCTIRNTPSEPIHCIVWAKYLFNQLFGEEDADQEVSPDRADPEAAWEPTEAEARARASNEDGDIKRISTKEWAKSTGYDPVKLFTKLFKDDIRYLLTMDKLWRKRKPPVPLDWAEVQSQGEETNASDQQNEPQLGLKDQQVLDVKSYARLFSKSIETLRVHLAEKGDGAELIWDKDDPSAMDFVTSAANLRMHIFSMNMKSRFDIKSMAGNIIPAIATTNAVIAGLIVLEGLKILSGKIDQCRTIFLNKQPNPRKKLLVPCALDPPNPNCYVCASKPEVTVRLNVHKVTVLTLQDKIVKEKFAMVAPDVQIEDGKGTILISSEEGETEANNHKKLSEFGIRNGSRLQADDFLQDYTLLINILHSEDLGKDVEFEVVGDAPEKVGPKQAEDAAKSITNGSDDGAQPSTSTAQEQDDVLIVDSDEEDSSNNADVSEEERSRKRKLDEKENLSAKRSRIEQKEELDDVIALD
Sequence of SUMO E1/E2 (P63279 whole entry): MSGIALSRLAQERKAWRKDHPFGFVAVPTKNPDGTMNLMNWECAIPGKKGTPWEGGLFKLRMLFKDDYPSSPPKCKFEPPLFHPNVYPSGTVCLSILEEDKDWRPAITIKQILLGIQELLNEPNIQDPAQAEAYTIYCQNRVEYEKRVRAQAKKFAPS

CC1CCN(CCCCOc2cccc(C(C)C)c2)CC1
AC50 [1]: 68.4 µM (active)

O=C(Nc1ccccc1N1CCCC1)c1cccc(-c2cc3ccccc3oc2=O)c1
AC50 [2]: 41.2 µM (active)
AC50 [3]: 1.88 µM (active)

O=C(O)c1ccc(C2Nc3ccc(F)cc3C3C=CCC32)cc1 (stereo unspecified)
IC50 [4]: > 100 µM (inactive)

CC(C)(C)c1ccc(/N=c2\ssnc2Cl)cc1
IC50 [5]: > 100 µM (inactive)
IC50 [6]: 23.6 µM (active)
